{"source": "patent US8614170B2", "about": "“Method for treating fracturing water” (Schlumberger Technology Corporation, priority 2008, dated 2013)", "key": {"[1]": {"test_system": "planktonic sulfate reducing bacteria", "assay": "Efficacy of metabolic inhibitor for planktonic sulfate reducing bacteria (NACE standard TMO194-94 test method)", "type": "cell-based", "conditions": "planktonic SRB, field mix water samples at 85 deg F. (29.4 deg C.), FIG. 1", "procedure": "(§1) Efficacy of metabolic inhibitor for sulfate reducing bacteria was tested. NACE standard TMO194-94 test method was employed for testing the presence of general heterotrophic bacteria (GHB), acid producing bacteria (APB), and sulphate reducing bacteria (SRB) in field mix water samples at 85 deg F. (29.4 deg C.) containing different metabolic inhibitors and microbiocides: 100 ppm active or 200 ppm of calcium nitration solution and 125 ppm active glut or 500 ppm glut solution were used. In a first example, shown in FIG. 1, efficacy of metabolic inhibitor for planktonic sulfate reducing bacteria is tested. In a second example, shown in FIG. 2, efficacy of metabolic inhibitor for sessile sulfate reducing bacteria is tested."}, "[2]": {"test_system": "sessile sulfate reducing bacteria", "assay": "Efficacy of metabolic inhibitor for sessile sulfate reducing bacteria (NACE standard TMO194-94 test method)", "type": "cell-based, sulfate reducing bacteria (SRB)", "procedure": "as §1"}}, "data": [{"substance": "calcium nitration solution [metabolic inhibitor]", "values": [{"measurement": "efficacy against sulfate reducing bacteria", "setting": "[1]", "result": "kill and/or inhibit the growth"}, {"measurement": "impact on sessile versus planktonic population", "setting": "[2]; maximum effect after 28 days", "result": "greater impact on the sessile bacteria population than the planktonic population"}, {"measurement": "efficacy against sulfate reducing bacteria", "setting": "[2]; sessile SRB, field mix water samples at 85 deg F. (29.4 deg C.), FIG. 2", "result": "kill and/or inhibit the growth"}]}]}
